According to US20220339187A1, “ANTIMICROBIAL PEPTIDE-SELENIUM NANOPARTICLES” (The University of Melbourne, priority 2019, published 2022):

How the values were obtained:
[1] = system: multidrug-resistant K. pneumoniae (MDR); experiment: CFU measuring assay / MBC calculation; format: cell-based, Klebsiella pneumoniae; details: 90 min at 37° C., linear regression, mean ± s.d.
Protocol: (§1) For the CFU measuring assay, 50 μL of different concentrations of Se NPs, Se NP-ε-PL or pure ε-PL in PBS solution was added into each well of 96-well microplates, then 50 μL MHB with 2.5×10^6 cells/mL bacteria were added into each well. After incubating the microplate at 37° C. for 90 min, the bacterial solutions were diluted 10^−1, 10^−2, 10^−3 and 10^−4 times, then 10 μL of each dilution was transferred onto agar plates with MHB. The agar plates were incubated overnight, before the bacterial colony forming units were observed and measured.
Concentration-killing curves were plotted with CFUs/mL as a function of antibacterial agent concentration, and linear regression analysis was used to determine the lowest concentration (MBC) at which the CFU/mL becomes zero.

[2] = system: K. pneumoniae ATCC 13883; experiment: Adenosine triphosphate (ATP) test (BacTiter-Glo); format: cell-based, Klebsiella pneumoniae; details: 1 h at 37° C.
Protocol: The bacterial strains methicillin-sensitive S. aureus ATCC 29213, E. faecalis ATCC 29212, E. coli ATCC 25922 and K. pneumoniae ATCC 13883 were cultured in MHB at 37° C. 50 μL of Se NPs, Se NP-ε-PL or pure ε-PL in PBS solution was added into each well of 96-well microplates. 50 μL MHB with 2.5×10^6 cells/mL bacteria was then added into each well. After 1h incubation at 37° C., the 96-well microplates were transferred to room temperature for a further 30 min incubation period. 100 μL of BacTiter-Glo™ reagent (Promega, Australia) was added into each well, then mixed on an orbital shaker and incubated for 5 min. The luminescence was recorded using a microplate reader (PerkinElmer 1420 Multilabel Counter VICTOR3).
A standard curve was generated by adopting the following steps. 10-fold serial dilutions of ATP from 1 μM to 10 pM in 100 μL MHB were prepared. 100 μL of BacTiter-Glo™ reagent was added into each well, then mixed on an orbital shaker and incubated for 1 min. The luminescence was recorded using a microplate reader (PerkinElmer 1420 Multilabel Counter VICTOR3).

[3] = system: methicillin-sensitive S. aureus (MSSA) ATCC 29213; experiment: ROS production test (CellROX Orange, flow cytometry); format: cell-based, Staphylococcus aureus; details: 6.25 or 12.5 μg/ml
Protocol: The bacterial strains methicillin-sensitive S. aureus (MSSA) ATCC 29213, E. faecalis ATCC 29212, E. coli ATCC 25922 were cultured in MHB at 37° C. 50 μL of different concentration of Se NPs, Se NP-ε-PL or pure ε-PL in PBS solution was added into each well of a 96-well microplate. 50 μL MHB with 2.5×10^6 cells/mL bacteria was then added into each well. After 90 min incubation at 37° C., CellROX® Orange Reagent was added into each well at a final concentration of 750 nM. The cells were incubated for a further 1 h. The fluorescence from the CellROX Orange Reagent was measured on FL-3 (red fluorescence channel) using the Cell Lab Quanta SC MPL flow cytometer (Beckman Coulter). Two independent experiments were done for this test, and two technical replicates were adopted for each independent experiment.

[4] = system: E. faecalis ATCC 29212; experiment: Membrane potential change test (BacLight, DiOC2(3)); format: cell-based, Enterococcus faecalis; details: 6.25 or 12.5 μg/ml
Protocol: (§2) Membrane potential change was measured using a BacLight Bacterial Membrane Potential Kit (Invitrogen). The bacterial strain methicillin-sensitive S. aureus (MSSA) ATCC 29213, E. faecalis ATCC 29212, E. coli ATCC 25922 were cultured in MHB at 37° C. 50 μL of different concentrations of Se NPs, Se NP-ε-PL or pure ε-PL in PBS solution was added into each well of 96-well microplates. 50 μL MHB with 2.5×10^6 cells/mL bacteria was then added into each well. 50 μL MHB with 2.5×10^6 cells/mL bacteria was added to 50 μL PBS to act as untreated control. Carbonyl cyanide 3-chlorophenylhydrazone (CCCP) was added to untreated control at a final concentration of 5 μM to act as fully depolarized control. 3,3′-Diethyloxacarbocyanine Iodide (DiOC2(3)) was added to all wells at a final concentration of […]. […] The untreated (polarized) and CCCP-treated (fully depolarized) controls were used to determine the percentage of depolarized cells. Two independent experiments were done for this test, and two technical replicates were adopted for each independent experiment.

[5] = system: E. coli ATCC 25922; experiment: as above; format: cell-based, Escherichia coli; details: 6.25 or 12.5 μg/ml (CCCP 5 μM)
Protocol: as §2

[6] = system: all tested bacterial strains (S. aureus, E. faecalis, E. coli, A. baumannii, P. aeruginosa, K. pneumoniae); experiment: Membrane disruption test (PI-positive cells); format: cell-based; details: 6.25 or 12.5 μg/ml, 90 min
Protocol: The bacterial strains methicillin-sensitive S. aureus ATCC 29213, E. faecalis ATCC 29212, E. coli ATCC 25922, A. baumannii 2208 ATCC19606, P. aeruginosa strain PAO1-LAC ATCC 47085 and K. pneumoniae ATCC 13883 were cultured in MHB at 37° C. 50 μL of different concentrations of Se NPs, Se NP-ε-PL or pure ε-PL in PBS solution was added into each well of 96-well microplates. 50 μL MHB with 2.5×10^6 cells/mL bacteria was then added into each well. 50 μL MHB with 2.5×10^6 cells/mL bacteria was added to 50 μL PBS to act as untreated control. After 90 min incubation at 37° C., 0.1% of a green-fluorescent nucleic acid stain (SYTO 9, Thermo Fisher Scientific) and 0.1% of propidium iodide (PI) were added to each well and incubated again for 5 min. SYTO 9 can stain both live and dead Gram-positive and Gram-negative bacteria. PI is a red-florescent nuclear and chromosome counterstain but is not permeant to cells with intact plasma membranes. A Cell Lab Quanta SC MPL flow cytometer (Beckman Coulter) was adopted to measure the percent of PI-positive cells. Two independent tests were performed, and two parallel samples were used in each test for each variation.

[7] = system: Gram-negative bacteria; experiment: Colony forming unit assay (bactericidal effect); format: cell-based
Protocol: as §1

[8] = system: mice; details: dosage of 5 g/kg; cited from earlier work

## ε-poly-L-lysine [ε-PL]
[1]
  MBC: 24.7 ± 0.5 µg/mL
[2]
  ATP depletion: higher ATP depletion effect than Se NPs
[3]
  ROS production (high ROS production cells): slight promotion of ROS production
[4]
  depolarisation of cell membrane: depolarized cell membranes
[5]
  depolarisation of cell membrane: depolarized cell membranes
[6]
  cell membrane disruption (PI positive cells): membrane disruption effects
[7]
  bactericidal effect (CFU): high bactericidal efficacy
[8]
  mortality, acute oral toxicity: no mortality
